Test results: the NIST ThermoML archive (doi:10.1016/j.fluid.2016.06.054)

Experiment: molar heat capacity at constant pressure
Conditions: Liquid, Flow calorimetry

CC(=O)[O-].CCCCCCn1cc[n+](C)c1 [3-hexyl-1-methylimidazolium acetate]
Conditions	molar heat capacity at constant pressure [J/K/mol]
308.3 K, 100 kPa	446.98
308.6 K, 3940 kPa	445.51
308.7 K, 7930 kPa	444.39
308.7 K, 11720 kPa	442.98
308.8 K, 16020 kPa	442.23
317.5 K, 100 kPa	451.85
317.5 K, 4020 kPa	450.18
317.6 K, 8080 kPa	449.27
317.8 K, 12320 kPa	448.43
317.9 K, 16210 kPa	447.35
327.4 K, 100 kPa	455.72
327.5 K, 4030 kPa	454.06
327.7 K, 8190 kPa	452.63
327.8 K, 12480 kPa	451.08
327.8 K, 16220 kPa	450.18
337.2 K, 100 kPa	460.35
337.3 K, 4120 kPa	458.97
337.7 K, 8030 kPa	457.41
337.8 K, 12180 kPa	456.32
338 K, 16110 kPa	454.87
345.9 K, 100 kPa	466.57
346.2 K, 4120 kPa	465.32
346.3 K, 8170 kPa	463.82
346.5 K, 12410 kPa	462.14
346.8 K, 16130 kPa	460.75
355.3 K, 100 kPa	472.17
355.6 K, 4120 kPa	470.85
355.7 K, 8010 kPa	469.29
355.9 K, 12430 kPa	468.34
356.1 K, 16130 kPa	466.81
365 K, 7990 kPa	476.86
365.1 K, 12180 kPa	475.05
365.4 K, 16100 kPa	473.57
365.7 K, 100 kPa	479.8
365.8 K, 4110 kPa	478.25
374 K, 100 kPa	485.51
374.2 K, 4020 kPa	483.86
374.4 K, 8100 kPa	482.22
374.7 K, 12380 kPa	480.71
375 K, 16130 kPa	479.24
383.9 K, 100 kPa	491.39
384.1 K, 4100 kPa	490.53
384.3 K, 7960 kPa	489.08
384.4 K, 12530 kPa	487.97
384.5 K, 16010 kPa	486.3
394.9 K, 100 kPa	496.24
395.1 K, 4070 kPa	494.51
395.1 K, 8360 kPa	493.11
395.2 K, 12770 kPa	491.91
395.4 K, 16400 kPa	490.48

CC(=O)[O-].CCn1cc[n+](C)c1 [1-ethyl-3-methylimidazolium acetate]
Conditions	molar heat capacity at constant pressure [J/K/mol]
303.15 K, 100 kPa	325.25
303.17 K, 4020 kPa	324.22
303.21 K, 8050 kPa	322.31
303.25 K, 12080 kPa	321.03
303.27 K, 16030 kPa	319.45
313.25 K, 100 kPa	329.51
313.37 K, 4110 kPa	327.89
313.42 K, 8060 kPa	327.03
313.45 K, 12060 kPa	326.25
313.49 K, 16090 kPa	325.87
323.16 K, 100 kPa	332.22
323.22 K, 4040 kPa	330.61
323.28 K, 8020 kPa	329.03
323.31 K, 12070 kPa	327.19
323.34 K, 16130 kPa	326.51
333.42 K, 100 kPa	337.87
333.48 K, 4080 kPa	336.14
333.52 K, 8030 kPa	334.67
333.59 K, 12010 kPa	333.16
333.61 K, 16090 kPa	331.41
343.76 K, 100 kPa	341.44
343.82 K, 4020 kPa	340.21
343.85 K, 8030 kPa	338.53
343.92 K, 12050 kPa	337.42
343.98 K, 16050 kPa	336.01
354.29 K, 100 kPa	345.18
354.33 K, 4060 kPa	343.89
354.38 K, 8020 kPa	342.02
354.46 K, 12080 kPa	340.87
354.52 K, 16090 kPa	339.03
363.65 K, 100 kPa	348.36
363.67 K, 4050 kPa	346.97
363.72 K, 8060 kPa	345.19
363.78 K, 12070 kPa	344.06
363.82 K, 16030 kPa	342.91
374.02 K, 100 kPa	353.57
374.09 K, 4070 kPa	352.06
374.11 K, 8010 kPa	350.13
374.15 K, 12150 kPa	348.47
374.18 K, 16110 kPa	347.01
383.41 K, 100 kPa	357.23
383.46 K, 4080 kPa	355.56
383.51 K, 8040 kPa	354.44
383.53 K, 12090 kPa	353.71
383.55 K, 16050 kPa	352.62
393.22 K, 100 kPa	362.22
393.26 K, 4030 kPa	361.14
393.31 K, 8070 kPa	359.92
393.33 K, 12140 kPa	358.14
393.35 K, 16090 kPa	356.53
